Measured values as given in patent publication US20080004281A1, “METHODS FOR THE MODULATION OF CRP BY THE SELECTIVE MODULATION OF PPAR DELTA” (KALYPSYS, INC., priority 2006, published 2008).

Tested on: plasma CRP
Assay: Plasma CRP in hyperlipidemic obese rhesus macaques, dose-escalating treatment
Format: in vivo
Experimental: In the present study, n=6 male obese rhesus macaques were selected for the study and prepared with 4 weeks of diet run-in (week −4 to week 0). At week 0, blood samples were taken in order to determine baseline plasma levels of CRP were measured prior to beginning dosage with Compound 1 as tosylate salt. Dosage began on the same day at 6 mg/kg/day in divided doses, given with food, and continued for four weeks. Dose was subsequently escalated at 4-week intervals to 12 mg/kg/d, 24 mg/kg/d, and finally 48 mg/kg/day. Plasma samples were taken at the close of each 4-week regimen, and a final sample was taken after 4 weeks of washout following discontinuation of dosing.
Quantitative measurements of plasma CRP in each sample taken were made by LabCorp, Inc. (Laboratory Corporation of America) by a multi-calibrator based high sensitivity wide ranged method using a immunoturbidometric assay. The limit of quantitation for the assay was 0.05 mg/dL and the highest point on the calibrator was 32 mg/dL. Mean values as percent change from baseline, and standard deviation as percent change from baseline, were calculated across the group and are shown in Table 2. Mean values for weeks 8-16 fell below the limit of quantiatation, and no data could therefore be reported for the standard deviation.

## C[C@@H]1CN(c2ccc(OC(F)(F)F)cc2)C[C@H](C)N1S(=O)(=O)c1cccc2c1CC(C(=O)O)C2 (stereo partly drawn) [Compound 1, 4-[cis-2,6-Dimethyl-4-(4-trifluoromethoxy-phenyl)-piperazine-1-sulfonyl]-indan-2-carboxylic acid]
Over 16 weeks of dose-escalating treatment, hyperlipidemic rhesus macaques
  plasma CRP change: significantly reduced
Washout period after 16 weeks of dosing
  CRP levels during the washout period: reverted back to the pre-treatment levels
Week 4, 6 mg/kg per day in divided doses with food, as tosylate salt, n=6 male obese rhesus macaques, baseline week 0 = 0.233
  Mean Plasma CRP: 0.166 mg/dL
Week 8, 12 mg/kg per day, as tosylate salt, LOQ 0.05
  Mean Plasma CRP: < 0.05 mg/dL
Week 12, 24 mg/kg per day, as tosylate salt, LOQ 0.05
  Mean Plasma CRP: < 0.05 mg/dL
Week 16, 48 mg/kg per day, as tosylate salt, LOQ 0.05
  Mean Plasma CRP: < 0.05 mg/dL
Week 20, after 4 weeks of washout following discontinuation of dosing (dose 0)
  Mean Plasma CRP: 0.183 mg/dL
